Measurements as given in patent US20110028686A1, “Protein binding miniature proteins” (Yale University, priority 2000, published 2011).
Like-named read-outs stand apart in the source and are kept apart here. Square brackets hold non-standard residues; d marks the D form. Peptide text beside a SMILES is read from it. * marks the point of attachment. Fluorescein(5-NHCOCH2) = O=C(C*)Nc1ccc2c(c1)C(=O)OC21c2ccc(O)cc2Oc2cc(O)ccc21; pS = N[C@@H](COP(=O)(O)O)C(=O)O

Columns and labels:
[1] = molecular target: T1, HisKIX (His-tagged CBP KIX domain) (Mus musculus, UniProt P45481); assay: Equilibrium fluorescence polarization, HisKIX binding; conditions: for Kd: 25° C.
T1 construct: The CBP KIX-coding region (residues 586 to 672) of pGEX-KT KIX 10-672; made in house; host or cells: E. coli BL21(DE3) pArg

[2] = tested on: hsCRE24 (CRE half-site DNA, ATGAC); assay: Electrophoretic mobility shift assay, binding to hsCRE24 DNA; conditions: for DNA binding: EMSA
Method: Miniature protein-binding to DNA was measured using an electrophoretic mobility shift assay performed in a Model SE600 Dual-Controller Vertical Slab Unit (Hoefer) using 14×16 cm gel plates. Temperature was controlled using a constant temperature bath. Reactions were performed in a binding buffer composed of 137 mM NaCl, 2.7 mM KCl, 4.3 mM Na2HPO4, 1.4 mM NaH2PO4 (pH 7.4), 1 mM EDTA, 0.1% NP-40, 0.4 mg/ml BSA (non-acetylated) and 5% glycerol. For experiments involving the bZIP peptide C/EBP152, the binding buffer was supplemented with 2 mM dithiothreitol. Serial peptide dilutions were performed as 1:1 dilutions with binding buffer. In general, 0.002 ml of gamma ^32P-labeled, double-stranded DNA (CRE24, hsCRE24, C/EBP24 or hsCEBP24; final concentration ≦50 pM in binding buffer; final concentration ≦5 pM for peptides with Kapp <500 pM) in binding buffer were added to 0.008 ml of a serial peptide dilution on ice. Peptide-DNA mixtures were incubated for thirty minutes on ice and then applied to a pre-equilibrated, native polyacrylamide gel (8% acrylamide:bisacrylamide) prepared in 10 mM Tris buffer (pH. 8.1). Gels were allowed to run 0.75 to 1.5 hours at 500 V and were dried on a Model SE1160 Drygel Sr. gel dryer (Hoefer). The gels were analyzed using a Storm 840 Phosphorimager (Molecular Dynamics). Amounts of free and bound DNA were quantified and analyzed using the program KaleidaGraph 3.0 (Synergy Software). Dissociation constants were determined by fitting the data to the Langmuir equation=c[(1+(Kapp/peptideT^n))^−1] where n=1 for PPEBP^SR and EBP^SR and n=2 for C/EBP152. In these equations, theta=cpm in protein-DNA complex/(cpm in protein-DNA complex+cpm free DNA); peptideT=the total peptide concentration and c is an adjustable parameter representing the maximum value of theta (c ≦1; for many peptides c was defined as 1). Values reported represent the average of at least three independent trials ±the standard error. Error bars on the plots represent the standard error for each data point.

[3] = fluorescein-labeled unphosphorylated peptide, read-out: Kd HisKIX, unphosphorylated peptide (U)
[4] = label shows phosphorylated (P) or unphosphorylated (U) form, read-out: Kd HisKIX
[5] = 4° C., read-out: affinity (Kd) for hsCRE
[6] = physiological ionic strength, read-out: equilibrium dissociation constant (Kd) of binding to hsCRE

T1 sequence (P45481 586-672): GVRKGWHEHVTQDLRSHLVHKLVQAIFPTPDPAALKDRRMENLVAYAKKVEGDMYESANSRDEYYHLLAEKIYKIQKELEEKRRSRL

`CC[C@H](C)[C@H](NC(=O)[C@H](Cc1ccc(O)cc1)NC(=O)[C@H](Cc1ccccc1)NC(=O)[C@H](Cc1ccccc1)NC(=O)[C@H](COP(=O)(O)O)NC(=O)[C@H](CC(C)C)NC(=O)[C@H](CCCNC(=N)N)NC(=O)[C@H](CCCNC(=N)N)NC(=O)[C@@H](NC(=O)[C@@H]1CCCN1C(=O)[C@H](C)NC(=O)[C@H](CC(=O)O)NC(=O)[C@H](CC(=O)O)NC(=O)CNC(=O)[C@H](Cc1c[nH]cn1)NC(=O)[C@H](Cc1ccc(O)cc1)NC(=O)[C@@H](NC(=O)[C@@H]1CCCN1C(=O)[C@H](Cc1c[nH]c2ccccc12)NC(=O)[C@H](CO)NC(=O)[C@H](CC(C)C)NC(=O)CN)[C@@H](C)O)C(C)C)C(=O)N[C@@H](CC(C)C)C(=O)N[C@@H](CC(C)C)C(=O)N[C@@H](CC(=O)O)C(=O)N[C@@H](CC(C)C)C(=O)N[C@@H](Cc1ccc(O)cc1)C(=O)N[C@@H](CC(C)C)C(=O)N[C@@H](CC(=O)O)C(=O)N[C@@H](C)C(=O)N1CCC[C@H]1C(=O)NCC(=O)N[C@H](C(=O)N[C@@H](CSCC(=O)Nc1ccc2c(c1)C(=O)OC21c2ccc(O)cc2Oc2cc(O)ccc21)C(N)=O)C(C)C` [PPKID5] gave a Kd ([1]; fluorescein-labeled phosphopeptide, read-out: Kd HisKIX, phosphorylated peptide (P)) of 0.534 ± 0.031 µM and a Kd [1, 3] of 6.6 ± 2 µM.
Compound `CC[C@H](C)[C@H](NC(=O)CN)C(=O)N[C@@H](CO)C(=O)N[C@@H](Cc1c[nH]c2ccccc12)C(=O)N1CCC[C@H]1C(=O)N[C@H](C(=O)N[C@@H](Cc1ccccc1)C(=O)N[C@@H](CCC(=O)O)C(=O)NCC(=O)N[C@@H](CC(=O)O)C(=O)N[C@@H](CC(=O)O)C(=O)N[C@@H](C)C(=O)N1CCC[C@H]1C(=O)N[C@H](C(=O)N[C@@H](CCCNC(=N)N)C(=O)N[C@@H](CCCNC(=N)N)C(=O)N[C@@H](CC(C)C)C(=O)N[C@@H](CCC(=O)O)C(=O)N[C@@H](Cc1ccccc1)C(=O)N[C@@H](Cc1ccccc1)C(=O)N[C@@H](Cc1ccc(O)cc1)C(=O)N[C@H](C(=O)N[C@@H](CC(C)C)C(=O)N[C@@H](CC(C)C)C(=O)N[C@@H](CC(=O)O)C(=O)N[C@@H](CC(C)C)C(=O)N[C@@H](Cc1ccc(O)cc1)C(=O)N[C@@H](CC(C)C)C(=O)N[C@@H](CC(=O)O)C(=O)N[C@@H](C)C(=O)N1CCC[C@H]1C(=O)NCC(=O)N[C@H](C(=O)N[C@@H](CSCC(=O)Nc1ccc2c(c1)C(=O)OC21c2ccc(O)cc2Oc2cc(O)ccc21)C(N)=O)C(C)C)[C@@H](C)CC)C(C)C)[C@@H](C)O` [PPKID6 S18E] (H-GISWPTFEGDDAPVRRLEFFYILLDLYLDAPGVC(Fluorescein(5-NHCOCH2))-NH2) has a Kd [1, 3] of 10.9 ± 2 µM.
With `CC[C@H](C)[C@H](NC(=O)[C@H](Cc1ccc(O)cc1)NC(=O)[C@H](Cc1ccccc1)NC(=O)[C@H](Cc1ccccc1)NC(=O)[C@H](CO)NC(=O)[C@H](CC(C)C)NC(=O)[C@H](CCCNC(=N)N)NC(=O)[C@H](CCCNC(=N)N)NC(=O)[C@@H](NC(=O)[C@@H]1CCCN1C(=O)[C@H](C)NC(=O)[C@H](CC(=O)O)NC(=O)[C@H](CC(=O)O)NC(=O)CNC(=O)[C@H](Cc1c[nH]c2ccccc12)NC(=O)[C@H](CCC(=O)O)NC(=O)[C@@H](NC(=O)[C@H](Cc1ccc(O)cc1)NC(=O)[C@@H]1CCCN1C(=O)[C@H](CO)NC(=O)[C@H](CC(C)C)NC(=O)CN)[C@@H](C)O)C(C)C)C(=O)N[C@@H](CC(C)C)C(=O)N[C@@H](CC(C)C)C(=O)N[C@@H](CC(=O)O)C(=O)N[C@@H](CC(C)C)C(=O)N[C@@H](Cc1ccc(O)cc1)C(=O)N[C@@H](CC(C)C)C(=O)N[C@@H](CC(=O)O)C(=O)N[C@@H](C)C(=O)N1CCC[C@H]1C(=O)NCC(=O)N[C@H](C(=O)N[C@@H](CSCC(=O)Nc1ccc2c(c1)C(=O)OC21c2ccc(O)cc2Oc2cc(O)ccc21)C(N)=O)C(C)C` [PPKID7] (H-GLSPYTEWGDDAPVRRLSFFYILLDLYLDAPGVC(Fluorescein(5-NHCOCH2))-NH2) the Kd [1, 3] was 2.3 ± 0.2 µM and the Kd [1, 4] was 1.5 to 3.1 µM.
In the case of `CC[C@H](C)[C@H](NC(=O)[C@H](Cc1ccc(O)cc1)NC(=O)[C@H](Cc1ccccc1)NC(=O)[C@H](Cc1ccccc1)NC(=O)[C@H](CO)NC(=O)[C@H](CC(C)C)NC(=O)[C@H](CCCNC(=N)N)NC(=O)[C@H](CCCNC(=N)N)NC(=O)[C@@H](NC(=O)[C@@H]1CCCN1C(=O)[C@H](C)NC(=O)[C@H](CC(=O)O)NC(=O)[C@H](CC(=O)O)NC(=O)CNC(=O)[C@@H]1CCCN1C(=O)[C@H](CC(=O)O)NC(=O)[C@@H](NC(=O)[C@H](CCCCN)NC(=O)[C@H](Cc1c[nH]c2ccccc12)NC(=O)[C@H](CO)NC(=O)[C@H](CC(C)C)NC(=O)CN)[C@@H](C)O)C(C)C)C(=O)N[C@@H](CC(C)C)C(=O)N[C@@H](CC(C)C)C(=O)N[C@@H](CC(=O)O)C(=O)N[C@@H](CC(C)C)C(=O)N[C@@H](Cc1ccc(O)cc1)C(=O)N[C@@H](CC(C)C)C(=O)N[C@@H](CC(=O)O)C(=O)N[C@@H](C)C(=O)N1CCC[C@H]1C(=O)NCC(=O)N[C@H](C(=O)N[C@@H](CSCC(=O)Nc1ccc2c(c1)C(=O)OC21c2ccc(O)cc2Oc2cc(O)ccc21)C(N)=O)C(C)C` [PPKID8] (H-GLSWKTDPGDDAPVRRLSFFYILLDLYLDAPGVC(Fluorescein(5-NHCOCH2))-NH2), the Kd [1, 3] is reported as 3.1 ± 0.5 µM and the Kd [1, 4] is reported as 1.5 to 3.1 µM.
With `CC[C@H](C)[C@H](NC(=O)[C@H](Cc1ccc(O)cc1)NC(=O)[C@H](Cc1ccccc1)NC(=O)[C@H](Cc1ccccc1)NC(=O)[C@H](COP(=O)(O)O)NC(=O)[C@H](CC(C)C)NC(=O)[C@H](CCCNC(=N)N)NC(=O)[C@@H](N)CCCNC(=N)N)C(=O)N[C@@H](CC(C)C)C(=O)N[C@@H](CC(C)C)C(=O)N[C@@H](CC(=O)O)C(=O)N[C@@H](CC(C)C)C(=O)N[C@@H](Cc1ccc(O)cc1)C(=O)N[C@@H](CC(C)C)C(=O)N[C@@H](CC(=O)O)C(=O)N[C@@H](C)C(=O)N1CCC[C@H]1C(=O)NCC(=O)N[C@H](C(=O)N[C@@H](CSCC(=O)Nc1ccc2c(c1)C(=O)OC21c2ccc(O)cc2Oc2cc(O)ccc21)C(N)=O)C(C)C` [Peptide C, reference compound] (H-RRL[pS]FFYILLDLYLDAPGVC(Fluorescein(5-NHCOCH2))-NH2) the “fold higher HisKIX affinity than KID-B^P” value [1] was “greater than 20 fold”, the “ΔΔG of CBP KIX binding compared to KID-B of the same phosphorylation state” value ([1]; listed as peptide C^P) was -1.8 kcal/mol and the “ΔΔG of CBP KIX binding compared to KID-B of the same phosphorylation state” value ([1]; listed as peptide C^U) was > -1.5 kcal/mol.
“DPAALKRARNTEAARRSRARKLQRMQC [G27, reference compound]” was tested, and the “stability of hsCRE24 complex lower than that of PPBR4^SR-hsCRE24 complex” value [2] was 3.1 kcal/mol, the Kd [2, 5] was 0.41 ± 0.053 µM and the “DNA binding at 25° C.” value [2] was “Neither PPBR4 nor G27 showed evidence of DNA binding”.
In the case of “GPSQPTYPGDDAPVEDLKRFRNTLAARRSRARKAARAAA [PPBR4^SR]”, the “delta, delta-G, hsCRE24 in preference to hsCEBP24” value [2] is reported as -4.4 kcal/mol, the “ratio of protein concentrations required to bind one-half of the two DNA” value [2] is reported as 2600 and the “delta, delta-G of discrimination against mutations at the 5′ terminus of hsCRE” value ([2]; 4° C.) is reported as -1.7 kcal/mol. The Kd [2, 5] was 0.0019 ± 0.0002 µM, the “DNA binding at 25° C.” value [2] was “Neither PPBR4 nor G27 showed evidence of DNA binding” and the “specificity ratio Krel, hsCRE24 in preference to hsCEBP24” value ([2]; Krel (Kd(hsCRE)/Kd(hsCEPB))) was 2600. The “formation of the hsCRE24 complex in presence of competitor DNA” value ([2]; high concentrations of poly (dIdC)-(dIdC) or a scrambled CRE site (NON)) was “unaffected” and the Kd [2, 6] was 0.0015 µM.
“GPSQPTYPGDDAPVEDLKRFRNTLAARRSRARKLQRMKQ [PPBR2^SR]” was tested, and the Kd [2, 6] was 0.005 µM.
With “PPBR10^SR: polyproline helix-basic region peptide, SEQ ID NO: 9 (GPSQPTYPGDDAPVEDLKRFRNTLAAYLSRLRKAARAAA; Pancreatic polypeptide basic region PPBR10)” the DNA binding [2] was “No significant DNA binding was detected”.
“PPBR11^SR: polyproline helix-basic region peptide, SEQ ID NO: 10 (GPSQPTYPGDDAPVEDLKRFRNTLAARLSRLRKAARAAA; Pancreatic polypeptide basic region PPBR11)” was tested, and the DNA binding [2] was “No significant DNA binding was detected”.
For “PPBRO^SR: polyproline helix-basic region peptide, SEQ ID NO: 8, lacking DNA-contact residue(s) (GPSQPTYPGDDAPVEDLKRFRNTLAAYLSVVRKLQRMKQ; Pancreatic polypeptide basic region PPBR0)”, the DNA binding [2] was “No significant DNA binding was detected”.
